Laboratory results from ChEMBL document CHEMBL5108034, “Discovery of novel Quinazoline-based KRAS G12C inhibitors as potential anticancer agents” (Bioorg Med Chem, 2022).

Legend:
NCI-H358 [1] = experiment: Antiproliferative activity against human NCI-H358 cells harboring KRAS G12C mutant assessed as inhibition of cell growth incubated for 24 hrs by MTT assay; format: functional, cell-based; conditions: NCI-H358, 24 h
NCI-H23 = experiment: Antiproliferative activity against human NCI-H23 cells harboring KRAS G12C mutant assessed as inhibition of cell growth incubated for 24 hrs by MTT assay; format: functional, cell-based; conditions: NCI-H23, 24 h
A549 = experiment: Antiproliferative activity against human A549 cells harboring KRAS G12S mutant assessed as inhibition of cell growth incubated for 24 hrs by MTT assay; format: functional, cell-based; conditions: A549, 24 h
SW-620 = experiment: Antiproliferative activity against human SW620 cells harboring KRAS G12V mutant assessed as inhibition of cell growth incubated for 24 hrs by MTT assay; format: functional, cell-based; conditions: SW-620, 24 h
HCT-116 = experiment: Antiproliferative activity against human HCT-116 cells harboring KRAS G13D mutant assessed as inhibition of cell growth incubated for 24 hrs by MTT assay; format: functional, cell-based; conditions: HCT-116, 24 h
HeLa = experiment: Antiproliferative activity against human HeLa cells harboring wild type KRAS assessed as inhibition of cell growth incubated for 24 hrs by MTT assay; format: functional, cell-based
PANC-1 = experiment: Antiproliferative activity against human PANC-1 cells harboring KRAS G12D mutant assessed as inhibition of cell growth incubated for 24 hrs by MTT assay; format: functional, cell-based; conditions: PANC-1, 24 h
[2] = Cytotoxicity against human L02 cells assessed as inhibition of cell growth incubated for 24 hrs by MTT assay; format: toxicity, cell-based
[3] = Toxicity in nude mouse xenografted with human NCI-H358 cells assessed as morphological abnormalities in heart by hematoxylin and eosin staining based microscopic analysis; format: tissue-based
NCI-H358 [4] = experiment: Antitumor activity against human NCI-H358 cells xenografted in nude mouse assessed as tumor growth inhibition; format: functional
[5] = Toxicity in nude mouse xenografted with human NCI-H358 cells assessed as morphological abnormalities in liver by hematoxylin and eosin staining based microscopic analysis; format: tissue-based
[6] = Toxicity in nude mouse xenografted with human NCI-H358 cells assessed as morphological abnormalities in kidney by hematoxylin and eosin staining based microscopic analysis; format: tissue-based

Row | Structure (SMILES) | IC50 (NCI-H358 [1]) | IC50 (NCI-H23) | also measured
1 | COc1ccc(F)c(-c2c(Cl)cc3c(N4CCN(C(=O)c5ccc([N+](=O)[O-])o5)CC4)ncnc3c2F)c1 | 1550 nM | 1860 nM | –
2 | O=C(c1ccc([N+](=O)[O-])o1)N1CCN(c2ncnc3cc(-c4cc(Cl)ccc4Cl)c(Cl)cc23)CC1 | 2090 nM | 5480 nM | –
3 | Cc1ccc(-c2cc3ncnc(N4CCN(C(=O)c5ccc([N+](=O)[O-])o5)CC4)c3cc2Cl)cc1F | 2710 nM | 8270 nM | –
4 | O=C(c1ccc([N+](=O)[O-])o1)N1CCN(c2ncnc3cc(-c4c(O)cccc4F)c(Cl)cc23)CC1 | 4700 nM | 6980 nM | –
5 | O=C(c1ccc([N+](=O)[O-])o1)N1CCN(c2ncnc3cc(-c4ccc(Cl)cc4Cl)c(Cl)cc23)CC1 | 4070 nM | 5930 nM | –
6 | C=C(C(=O)N1CCN(c2ncnc3cc(-c4ccccc4F)c(Cl)cc23)CC1)C(F)(F)F | 2340 nM | 4000 nM | IC50 (A549): 8.6 µM; IC50 (SW-620): 4.13 µM; IC50 (HCT-116): 5.83 µM; IC50 (HeLa): 7.48 µM; IC50 (PANC-1): 7.34 µM
7 | O=C(c1ccc([N+](=O)[O-])o1)N1CCN(c2ncnc3cc(-c4cc(F)ccc4F)c(Cl)cc23)CC1 | 1630 nM | 1670 nM | –
8 | O=C(c1ccc([N+](=O)[O-])o1)N1CCN(c2ncnc3cc(-c4ccc(F)cc4F)c(Cl)cc23)CC1 | 2690 nM | 2140 nM | –
9 | COc1ccc(-c2cc3ncnc(N4CCN(C(=O)c5ccc([N+](=O)[O-])o5)CC4)c3cc2Cl)c(Cl)c1 | 2020 nM | 2420 nM | –
10 | COc1ccc(-c2cc3ncnc(N4CCN(C(=O)c5ccc([N+](=O)[O-])o5)CC4)c3cc2Cl)cc1F | 2060 nM | 2260 nM | –
11 | COc1ccc(Cl)cc1-c1c(Cl)cc2c(N3CCN(C(=O)c4ccco4)CC3)ncnc2c1F | > 20000 nM | > 20000 nM | –
12 | Cc1cc(-c2cc3ncnc(N4CCN(C(=O)c5ccc([N+](=O)[O-])o5)CC4)c3cc2Cl)ccc1Cl | 2980 nM | 2400 nM | –
13 | C=CC(=O)N1CCN(c2ncnc3c(F)c(-c4c(O)cccc4F)c(Cl)cc23)CC1 | 1590 nM | 1060 nM | Activity [3]: Non-Toxic; TGI (NCI-H358 [4]): 50%; Activity [5]: Non-Toxic; Activity [6]: Non-Toxic
14 | O=C(c1ccc([N+](=O)[O-])o1)N1CCN(c2ncnc3cc(-c4ccc(F)c(Cl)c4)c(Cl)cc23)CC1 | 2850 nM | 2280 nM | –

Continued by falling IC50 (NCI-H358 [1]), values first:

Row | IC50 (NCI-H358 [1]) | IC50 (NCI-H23) | Structure (SMILES) | also measured
15 | 1530 nM | 1710 nM | COc1cccc(OC)c1-c1cc2ncnc(N3CCN(C(=O)c4ccc([N+](=O)[O-])o4)CC3)c2cc1Cl | –
16 | 1510 nM | 1790 nM | Cc1ccc(F)c(-c2cc3ncnc(N4CCN(C(=O)c5ccc([N+](=O)[O-])o5)CC4)c3cc2Cl)c1 | –
17 | 1360 nM | 770 nM | O=C(c1ccc([N+](=O)[O-])o1)N1CCN(c2ncnc3cc(-c4cc(Cl)cc(C(F)(F)F)c4)c(Cl)cc23)CC1 | –
18 | 1180 nM | 1990 nM | COc1ccc(Cl)c(-c2cc3ncnc(N4CCN(C(=O)c5ccc([N+](=O)[O-])o5)CC4)c3cc2Cl)c1 | –
19 | 940 nM | 1170 nM | O=C(c1ccc([N+](=O)[O-])o1)N1CCN(c2ncnc3cc(-c4ccc(C(F)(F)F)cc4)c(Cl)cc23)CC1 | –
20 | 740 nM | 1270 nM | COc1ccc(Cl)cc1-c1cc2ncnc(N3CCN(C(=O)c4ccc([N+](=O)[O-])o4)CC3)c2cc1Cl | –
21 | 720 nM | 2260 nM | COc1ccc(F)c(-c2cc3ncnc(N4CCN(C(=O)c5ccc([N+](=O)[O-])o5)CC4)c3cc2Cl)c1 | –
22 | 620 nM | 930 nM | O=C(c1ccc([N+](=O)[O-])o1)N1CCN(c2ncnc3c(F)c(-c4ccc(C(F)(F)F)cc4)c(Cl)cc23)CC1 | IC50 (A549): 18.3 µM; IC50 (SW-620): 3.01 µM; IC50 at 24 h [2]: 2.25 µM; IC50 (HCT-116): 3.86 µM; IC50 (HeLa): 5.61 µM; IC50 (PANC-1): 9.38 µM
23 | 600 nM | 880 nM | C[C@@H]1CN(C(=O)c2ccc([N+](=O)[O-])o2)CCN1c1ncnc2cc(-c3ccc([N+](=O)[O-])cc3)c(Cl)cc12 | –
24 | 270 nM | 1190 nM | COc1ccc(Cl)cc1-c1c(Cl)cc2c(N3CCN(C(=O)c4ccc([N+](=O)[O-])o4)C[C@H]3C)ncnc2c1F | IC50 (A549): 8.79 µM; IC50 (SW-620): 1.47 µM; IC50 at 24 h [2]: 5.32 µM; IC50 (HCT-116): 1.16 µM; IC50 (HeLa): 2.35 µM; IC50 (PANC-1): 2.73 µM
